Data reported in US10669272B2, “Substituted naphthyridinone compounds useful as T cell activators” (BRISTOL-MYERS SQUIBB COMPANY, priority 2018, dated 2020).
Read-outs that look alike come from different tables or passages of the source.

Tests used:
[1] = test system: OT-1 CD8+ T cells with SIINFEKL-loaded MC38 tumor cells; test: Murine cytotoxic T lymphocyte assay (IFN-γ, OT-1 CTL with MC38 tumor cells); format: cell-based, mouse; details: read-out: msCTL INFg IC50
Excerpt: 5. Murine Cytotoxic T Lymphocyte Assay
An antigen-specific cytolytic T-cell (CTL) assay was developed to evaluate functionally the ability of DGKα and DGKζ inhibitors to enhance effector T cell mediated tumor cell killing activity. CD8+ T-cells isolated from the OT-1 transgenic mouse recognize antigen presenting cells, MC38, that present the ovalbumin derived peptide […]. Recognition of the cognate antigen initiates the cytolytic activity of the OT-1 antigen-specific CD8+ T cells.
Functional CTL cells were generated as follows: OT-1 splenocytes from 8-12 week old mice were isolated and expanded in the presence of the […] peptide at 1 μg/mL and mIL2 at 10 U/mL. After three days, fresh media with […] was added. On day 5 of the expansion, the CD8+ T cells were isolated and ready for use. Activated CTL cells may be stored frozen for 6 months. Separately, one million MC38 tumor cells were pulsed with 1 μg/mL of […]-OVA peptide for 3 hours at 37° C. The cells were washed (3×) with fresh media to remove excess peptide. Finally, CTL cells that were pretreated with DGK inhibitors for 1 hour in a 96-well U bottom plate were combined with the antigen loaded MC38 tumor cells at a 1:10 ratio. The cells were then spun at 700 rpm for 5 min and placed in an incubator overnight at 37° C. After 24 hours, the supernatant was collected for analysis of IFN-γ cytokine levels by AlphaLisa purchased from Perkin Elmer.

human DGKα = molecular target: T1, human DGKα (Homo sapiens, UniProt P23743); test: DGKα LIPGLO assay (extruded liposome substrate), in vitro DGK inhibition; format: biochemical; details: read-out: DGKa LIPGLO IC50
T1 construct: TVMV protease cleavage site (C); Hexa-His (C); made in house; host or cells: Sf9 insect cells (baculovirus, Bac-to-Bac)

human DGKζ = molecular target: T2, human DGKζ (Homo sapiens, UniProt Q13574); test: DGKζ LIPGLO assay (extruded liposome substrate), in vitro DGK inhibition; format: biochemical; details: read-out: DGKz LIPGLO IC50
T2 construct: TVMV protease cleavage site (C); Hexa-His (C); made in house; host or cells: Sf9 insect cells (baculovirus, Bac-to-Bac)

naïve human CD8 T cells = test: Human CD8 T cells IFN-γ assay; format: cell-based; details: read-out: HuCD8 INFG Normalized EC50;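 also: Naïve human CD8 T cells stimulated with plate-bound anti-CD3 and soluble anti-CD28, IFN-γ in supernatant quantified by AlphaLISA and converted to pg/mL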
Human venous whole blood = test: Human whole blood IFN-γ assay; format: cell-based; details: human whole blood, read-out: INFg Whole Blood Normalized Agonist EC50;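 also: blood from healthy donors exposed to compound for 1 h before stimulation with anti-CD3 and anti-CD28 at 1 µg/mL each, IFN-γ quantified in supernatant by AlphaLISA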
Protocol: Human Whole Blood IFN-γ Assay
Human venous whole blood (22.5 μL per well), obtained from healthy donors, was pre-treated with compounds for one hour at 37° C. in a humidified 95% air/5% CO2 incubator. The blood was stimulated with 2.5 μL anti-human CD3 and anti-CD28 mAb at a final concentration of 1 μg/mL each for 24 hours at 37° C. IFN-γ in the supernatants was measured using AlphLISA kit (Cat # AL217).

[2] = Homo sapiens, T-cell, 20 h, normalized to 3 μM reference compound with anti-CD3 plus anti-CD28 as 100% activation
[3] = Homo sapiens, 24 h, normalized to 3 μM reference compound with anti-CD3 plus anti-CD28 as 100% activation
[4] = normalized to 3 μM reference compound with anti-CD3 plus anti-CD28 as 100% activation

T1 sequence (P23743 with tags, fused parts or gaps): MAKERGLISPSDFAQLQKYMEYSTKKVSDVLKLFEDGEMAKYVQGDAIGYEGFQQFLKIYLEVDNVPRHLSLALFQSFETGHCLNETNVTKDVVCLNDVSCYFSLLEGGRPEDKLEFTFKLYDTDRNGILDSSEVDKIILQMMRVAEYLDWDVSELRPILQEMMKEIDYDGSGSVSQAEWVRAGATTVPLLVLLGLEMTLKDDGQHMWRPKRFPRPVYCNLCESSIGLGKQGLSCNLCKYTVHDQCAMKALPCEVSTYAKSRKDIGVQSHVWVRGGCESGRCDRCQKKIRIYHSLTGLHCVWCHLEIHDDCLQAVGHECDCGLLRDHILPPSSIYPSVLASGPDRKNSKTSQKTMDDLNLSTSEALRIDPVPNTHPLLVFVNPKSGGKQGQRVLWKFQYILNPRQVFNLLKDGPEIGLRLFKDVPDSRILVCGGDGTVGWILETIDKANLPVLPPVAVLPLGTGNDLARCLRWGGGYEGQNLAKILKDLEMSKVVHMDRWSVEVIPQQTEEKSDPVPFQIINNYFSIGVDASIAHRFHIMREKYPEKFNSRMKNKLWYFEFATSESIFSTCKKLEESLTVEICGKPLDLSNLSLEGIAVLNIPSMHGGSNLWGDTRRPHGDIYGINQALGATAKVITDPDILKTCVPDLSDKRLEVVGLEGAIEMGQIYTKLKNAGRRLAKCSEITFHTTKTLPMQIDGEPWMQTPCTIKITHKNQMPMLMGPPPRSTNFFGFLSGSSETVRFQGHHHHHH
T2 sequence (Q13574 with tags, fused parts or gaps isoform Q13574-4): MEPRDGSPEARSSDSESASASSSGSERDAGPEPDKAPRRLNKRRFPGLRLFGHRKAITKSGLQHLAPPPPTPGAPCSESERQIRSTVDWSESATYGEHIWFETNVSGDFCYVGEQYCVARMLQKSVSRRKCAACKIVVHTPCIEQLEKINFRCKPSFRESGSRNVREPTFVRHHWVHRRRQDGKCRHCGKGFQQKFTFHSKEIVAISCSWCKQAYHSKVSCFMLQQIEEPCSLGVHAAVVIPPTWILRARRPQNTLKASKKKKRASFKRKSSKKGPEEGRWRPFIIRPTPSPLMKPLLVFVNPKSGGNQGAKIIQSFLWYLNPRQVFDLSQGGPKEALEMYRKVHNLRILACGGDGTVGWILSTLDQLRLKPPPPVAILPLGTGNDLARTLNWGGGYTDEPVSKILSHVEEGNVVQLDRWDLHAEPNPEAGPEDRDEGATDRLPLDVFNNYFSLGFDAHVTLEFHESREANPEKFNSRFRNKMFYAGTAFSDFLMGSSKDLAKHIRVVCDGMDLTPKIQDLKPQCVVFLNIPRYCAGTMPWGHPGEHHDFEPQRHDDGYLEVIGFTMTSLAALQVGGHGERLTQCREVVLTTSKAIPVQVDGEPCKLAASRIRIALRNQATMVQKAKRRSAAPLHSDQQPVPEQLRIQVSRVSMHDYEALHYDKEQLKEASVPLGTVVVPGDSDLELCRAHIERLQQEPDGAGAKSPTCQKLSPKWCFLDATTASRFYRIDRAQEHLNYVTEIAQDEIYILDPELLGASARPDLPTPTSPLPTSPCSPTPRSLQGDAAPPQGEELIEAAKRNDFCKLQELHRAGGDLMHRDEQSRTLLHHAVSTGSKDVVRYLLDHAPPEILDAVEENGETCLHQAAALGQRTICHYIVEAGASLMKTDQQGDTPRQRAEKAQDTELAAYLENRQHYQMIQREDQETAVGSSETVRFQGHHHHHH

Structure (SMILES) | IC50 (human DGKα; liposome (LIPGLO) assay) | IC50 (human DGKζ; liposome (LIPGLO) assay) | EC50 (naïve human CD8 T cells; [2]) | EC50 (Human venous whole blood; [3]) | other results
C[C@@H]1CN(C(c2ccc(F)cc2)c2ccc(F)cc2)[C@H](C)CN1c1cc(=O)n(C)c2ccc(C#N)nc12 [Example 131, 8-((2R,5R)-4-(bis(4-fluorophenyl)methyl)-2,5-dimethylpiperazin-1-yl)-5-methyl-6-oxo-5,6-dihydro-1,5-naphthyridine-2-carbonitrile] | – | – | – | – | IC50 ([1]; Mus musculus, MC-38): 5900 nM
CC[C@@H]1CN(C(c2ccc(F)cc2)c2ccc(F)cc2)CCN1c1cc(=O)n(C)c2ccc(C#N)nc12 [Example 170, (R)-8-(4-(bis(4-fluorophenyl)methyl)-2-ethylpiperazin-1-yl)-5-methyl-6-oxo-5,6-dihydro-1,5-naphthyridine-2-carbonitrile] | – | – | – | – | IC50 ([1]; Mus musculus, MC-38): 2600 nM
CC(C)C(=O)C1CN(c2cc(=O)n(C)c3ccc(C#N)nc23)CCN1C(c1ccc(F)cc1)c1ccc(F)cc1 (single isomer, unassigned) [Example 87, 8-(4-(bis(4-fluorophenyl)methyl)-3-isobutyrylpiperazin-1-yl)-5-methyl-6-oxo-5,6-dihydro-1,5-naphthyridine-2-carbonitrile] | 28000 nM | 6600 nM | – | – | IC50 [1]: 450 nM
COC(=O)C1CN(c2c(F)c(=O)n(C)c3ccc(C#N)nc23)CCN1C(c1ccc(F)cc1)c1ccc(F)cc1 (single isomer, unassigned) [Example 75, Methyl 1-(bis(4-fluorophenyl)methyl)-4-(6-cyano-3-fluoro-1-methyl-2-oxo-1,2-dihydro-1,5-naphthyridin-4-yl)piperazine-2-carboxylate] | 990 nM | 400 nM | – | – | IC50 [1]: 23 nM
C[C@@H]1CN(c2c(C#N)c(=O)n(C)c3ccc(C#N)nc23)CCN1C(c1ccc(Cl)cc1)c1ccc(Cl)cc1 [Example 103, (R)-8-(4-(bis(4-chlorophenyl)methyl)-3-methylpiperazin-1-yl)-5-methyl-6-oxo-5,6-dihydro-1,5-naphthyridine-2,7-dicarbonitrile] | – | – | – | – | IC50 ([1]; Mus musculus, MC-38): 76 nM
C[C@H]1CN(c2c(Cl)c(=O)n(C)c3ccc(C#N)nc23)CCN1C(c1ccc(F)cc1)c1ccc(F)cc1 [Example 36, (S)-8-(4-(bis(4-fluorophenyl)methyl)-3-methylpiperazin-1-yl)-7-chloro-5-methyl-6-oxo-5,6-dihydro-1,5-naphthyridine-2-carbonitrile] | – | – | – | – | IC50 ([1]; Mus musculus, MC-38): 1200 nM
C[C@@H]1CN(c2cc(=O)n(C)c3ccc(C#N)nc23)[C@@H](C)CN1C(c1ccc(F)cc1)c1ccc(F)cc1 [Example 3, 8-((2S,5R)-4-(bis(4-fluorophenyl)methyl)-2,5-dimethylpiperazin-1-yl)-5-methyl-6-oxo-5,6-dihydro-1,5-naphthyridine-2-carbonitrile] | – | – | – | – | IC50 ([1]; Mus musculus, MC-38): 70 nM
C[C@@H]1CN(c2cc(=O)n(C)c3ccc(C#N)nc23)[C@@H](C)CN1C(c1ccc(F)cc1)c1ccc(F)cn1 (single isomer, unassigned) [Example 194] | 200 nM | 680 nM | 40 nM | 980 nM | –
Cc1ccc(C(c2cc(C)ccn2)N2C[C@H](C)N(c3cc(=O)n(C)c4ccc(C#N)nc34)C[C@H]2C)cc1 (single isomer, unassigned) [Example 460] | 30 nM | 38 nM | 27 nM | – | EC50 (Human venous whole blood; [4]): 520 nM
COC(=O)C1CN(C(c2ccc(F)cc2)c2ccc(F)cc2)CCN1c1c(C#N)c(=O)n(C)c2ccc(C#N)nc12 (stereo not shown) [Example 114, Methyl 4-(bis(4-fluorophenyl)methyl)-1-(3,6-dicyano-1-methyl-2-oxo-1,2-dihydro-1,5-naphthyridin-4-yl)piperazine-2-carboxylate] | 420 nM | 1600 nM | 57 nM | 490 nM | –
C[C@@H]1CN(c2cc(=O)n(C)c3ccc(C#N)nc23)[C@@H](C)CN1C(c1ccc(OC(F)(F)F)cc1)c1ccccn1 (single isomer, unassigned) [Example 378] | 690 nM | 2500 nM | 5.3 nM | 490 nM | –
COc1ncccc1C(c1ccc(F)cc1)N1C[C@H](C)N(c2cc(=O)n(C)c3ccc(C#N)nc23)C[C@H]1C (single isomer, unassigned) [Example 209] | 15000 nM | 320 nM | 170 nM | 1500 nM | –
Cc1ccc(C(c2ccc(F)cc2)N2C[C@H](C)N(c3cc(=O)n(C)c4ccc(C#N)nc34)C[C@H]2C)cc1 (stereo partly drawn) [Example 295, 8-[(2S,5R)-4-[(4-fluorophenyl)(4-methylphenyl)methyl]-2,5-dimethylpiperazin-1-yl]-5-methyl-6-oxo-5,6-dihydro-1,5-naphthyridine-2-carbonitrile] | 1800 nM | 1300 nM | 200 nM | 640 nM | –
C[C@@H]1CN(c2cc(=O)n(C)c3ccc(C#N)nc23)[C@@H](C)CN1C(c1ccc(Cl)cc1)c1cccc(F)n1 (single isomer, unassigned) [Example 195] | 1100 nM | 1100 nM | – | 1800 nM | EC50 (naïve human CD8 T cells; [4]): 9.9 nM
C[C@@H]1CN(c2cc(=O)n(C)c3ccc(C#N)nc23)[C@@H](C)CN1C(c1ccccc1)c1c(F)cccc1F (single isomer, unassigned) [Example 272] | 990 nM | 450 nM | 79 nM | – | EC50 (Human venous whole blood; [4]): 2500 nM
Cc1cccc(F)c1CN1C[C@H](C)N(c2cc(=O)n(C)c3ccc(C#N)nc23)C[C@H]1C [Example 255, 8-[(2S,5R)-4-[(2-fluoro-6-methylphenyl)methyl]-2,5-dimethylpiperazin-1-yl]-5-methyl-6-oxo-5,6-dihydro-1,5-naphthyridine-2-carbonitrile] | 770 nM | 1700 nM | 180 nM | 3200 nM | –
C[C@@H]1CN(c2c(Cl)c(=O)n(C)c3ccc(C#N)nc23)[C@@H](C)CN1C(c1ccccc1)c1ccc(F)cc1 (single isomer, unassigned) [Example 217] | 50000 nM | 140000 nM | 7800 nM | 20000 nM | –
Cc1ccc(C(c2ccc(Cl)cc2)N2C[C@H](C)N(c3cc(=O)n(C)c4ccc(C#N)nc34)C[C@H]2C)nc1 (single isomer, unassigned) [Example 363] | 150 nM | 400 nM | 99 nM | – | EC50 (Human venous whole blood; [4]): 130 nM
C[C@@H]1CN(c2c(C#N)c(=O)n(C)c3ccc(C#N)nc23)CCN1C(c1cccc(F)c1)c1ccc(F)cn1 (single isomer, unassigned) [Example 925] | – | – | – | – | IC50 (human DGKα; DGKα liposome (LIPGLO) assay): 2500 nM; IC50 (human DGKζ; DGKζ liposome (LIPGLO) assay): 2800 nM; EC50 (naïve human CD8 T cells; Homo sapiens, T-cell, 20 h, naïve human CD8 T cells, anti-CD3 plus anti-CD28, 3 μM reference compound = 100% activation): 91 nM; EC50 (Human venous whole blood; anti-CD3 plus anti-CD28, 24 hours, 3 μM reference compound = 100% activation): 710 nM
[2H]C(C)(c1ccc(F)cc1)N1C[C@H](C)N(c2c(F)c(=O)n(C)c3ccc(C#N)nc23)C[C@H]1C (single isomer, unassigned) [Example 425] | 58 nM | 1500 nM | 110 nM | – | EC50 (Human venous whole blood; [4]): 270 nM
C[C@@H]1CN(c2cc(=O)n(C)c3ccc(C#N)nc23)[C@@H](C)CN1C(c1ccc(F)cc1)c1c(F)cccc1F (single isomer, unassigned) [Example 275] | 1900 nM | 3600 nM | – | – | EC50 (naïve human CD8 T cells; [4]): 230 nM; EC50 (Human venous whole blood; [4]): 3700 nM
Cc1ccc(C(c2cncc(F)c2)N2C[C@H](C)N(c3cc(=O)n(C)c4ccc(C#N)nc34)C[C@H]2C)cc1 (single isomer, unassigned) [Example 391] | 3100 nM | 2400 nM | 81 nM | – | EC50 (Human venous whole blood; [4]): 890 nM
C[C@@H]1CN(c2cc(=O)n(C)c3ccc(C#N)nc23)[C@@H](C)CN1C(c1ccc(F)cc1)c1cccc2c1OC(F)(F)O2 (stereo partly shown) [Example 668] | 120000 nM | 3100 nM | – | 600 nM | EC50 (naïve human CD8 T cells; [4]): 35 nM
C[C@@H]1CN(c2cc(=O)n(C)c3ccc(C#N)nc23)[C@@H](C)CN1Cc1cc(F)ccc1F [Example 262, 8-[(2S,5R)-4-[(2,5-difluorophenyl)methyl]-2,5-dimethylpiperazin-1-yl]-5-methyl-6-oxo-5,6-dihydro-1,5-naphthyridine-2-carbonitrile] | 640 nM | 2500 nM | 310 nM | 7100 nM | –
